The values that follow come from PMC11148772, “Inhibition of protein translational machinery in triple-negative breast cancer as a promising therapeutic strategy” (Cell Reports Medicine, 2024).

Where “and” joins values, the source holds several entries; their conditions need not be identical. Equal entries are not always repeated.

The nature of series [1]: Pharmacokinetics study. It is filed as in vivo, mouse. The settings on record: 20 mg/kg oral. The procedure:
Female C57BL/6J mice of 6–7 weeks were purchased from Jackson Laboratory and housed under standard laboratory conditions. SU056 (20 mg/kg) was given by oral gavage. Blood (200–300 μL) was collected retro-orbitally in EDTA-treated tubes after 15, 30, 60, 120, 240 and 360 min of SU056 administration. Blood plasma collected by centrifugation (7000 rpm; 10 min). The concentration of SU056 in plasma was analyzed using an Agilent 6490 iFunnel triple quadrupole mass spectrometer, coupled with an Agilent 1290 infinity II UHPLC. A ZORBAX C18 analytical column (Eclipse Plus, 2.1 × 50 mm, 1.8 μm particle size) was employed in the study. To create the mobile phase, a solution was prepared with 60% water buffered with 0.1% formic acid and 4mM ammonium formate, along with a solution of 40% acetonitrile buffered with 0.1% formic acid. The mobile phase flow rate was set to 0.4 mL/min and the column temperature was adjusted to 30°C. Positive ion mode was selected for operating the electrospray ionization source. Mass spectrometer parameters were optimized as: source temperature 550°C, nebulizer gas (nitrogen) 20 psi, ion spray (IS) voltage 5000 V, collision energy 21 V. Multiple reaction monitoring (MRM) method was used for the detection of SU056 and an internal standard (IS), 4-(2-hydroxyethyl)-6-methoxy-9-phenyl-4,9-dihydrofuro[3,4-b]quinolin-1(3H)-one, a similar analogue of SU056. […] The calibration curve, created with known concentrations of SU056 and IS, enabled the calculation of unknown concentrations of SU056 in plasma at different time points. A 5 μL plasma was taken from each sample and mixed with a 10 μL of IS solution and 990 μL of MS-grade acetonitrile then vortexed for 30 s followed by a 5 min incubation at RT. The mixture was subjected to centrifugation at 11,000 RPM for 15 min at 4°C, leading to the collection of the supernatant which was further cleaned by re-centrifugation. The concentration of SU056 was determined using the HPLC/MS MRM method with each of the three protein-free plasma fractions.[32]

In series [2] the test system is CA1262-PDX-TNBC and MA2821-PDX-TNBC tumors. Description: Immunoblot of PDX tumor lysates. The format is in vivo, mouse. Particulars: daily oral 50 mg/kg for 3 weeks. The procedure: MDA-MB-231, MDA-MB-468, and SUM159 cells were grown to 60–70% confluency and treated with DMSO and SU056 (1 μM) for 12 and 24 h. After the specific treatment time was over, total cell lysates were prepared in non-denaturing lysis buffer. For protein lysate from tumors: randomly selected frozen sample; three from vehicle and SU056 treated group were homogenized in non-denaturing lysis buffer at 4°C for 5 min. 10 μg of protein lysate per sample was resolved on 8–16% SDS-PAGE. Membranes were probed with specific primary antibodies followed by detection with HRP-conjugated appropriate secondary antibodies, visualized by enhanced chemiluminescence detection system, and imaged using an iBright imaging system (Thermo Fisher, USA).
A general note: In western blotting, separated proteins are transferred to a membrane and probed.

Series [3] deals with E0771 cells. Description: MTT cell viability assay. The format is cell-based. The settings on record: Mus musculus, 48 h. The procedure:
(§1) MDA-MB-231 (5000 cells per well), MDA-MB-468 (6000 cells per well), SUM159 (3000 cells per well), 4T1 (2000 cells per well), EMT6 (2000 cells per well), E0771 (3000 cells per well), MCF10A (5000 cells per well) and MCF12A (5000 cells per well) cells were seeded in 96-well culture plates. On the next day, cells were treated with either DMSO or indicated concentrations of SU056 for 48 h 3-(4,5-dimethylthiazol-2-yl)-2,5-diphenyltetrazolium bromide (MTT) (0.5 mg/mL) was dissolved in 1x PBS and 50 μL were added to each well and allowed to form formazan crystals (1–2 h) followed by removal of MTT. Formazan crystals were dissolved in DMSO and plates were scanned at 570nm using a Tecan multimode plate reader.
In general terms: Tetrazolium dyes change colour on reduction, which living cells bring about.

Series [4] deals with 4T1 cells. Description: MTT cell viability assay. The format is cell-based. The settings on record: Mus musculus, 48 h. The procedure:
as §1

In series [5] the test system is SUM159 cells. Description: MTT cell viability assay. The format is cell-based. The settings on record: Homo sapiens, 48 h. Here is the method: as §1
In series [6] the test system is EMT6 cells. Description: MTT cell viability assay. The format is cell-based. Particulars: Mus musculus, 48 h. The procedure:
as §1

The subject of series [7] is MDA-MB-468 cells. Description: MTT cell viability assay. The format is cell-based. The settings on record: Homo sapiens, 48 h. The procedure: as §1
The subject of series [8] is MDA-MB-231 cells. Description: MTT cell viability assay. The format is cell-based. The settings on record: Homo sapiens, MDA-MB-231, 48 h. Here is the method: as §1
In series [9] the test system is MDA-MB-468 cells. Description: Cell cycle analysis (PI, flow cytometry). It is filed as cell-based, human. Here is the method:
(§2) TNBC cells (MDA-MB-231, MDA-MB-468, and SUM159) were seeded (40,000 cells per well) in 12 well plates and grown in regular conditions. The next day, cells were treated with DMSO (control) and indicated SU056 concentrations. At the end of each time point, cells were processed for PI staining as described earlier.[49] Synchronization of cells in G2/M phase was done using nocodazole (200 nM for 16 h) followed by SU056 treatment for 24 h. Cell cycle distribution was then analyzed by flow cytometry using a BD FACS Calibur (BD, USA).
A general note: A flow cytometer gives signals particle by particle.

Series [10] concerns MDA-MB-231 cells. Description: Cell cycle analysis (PI, flow cytometry). It is filed as cell-based, human. Here is the method: as §2
The subject of series [11] is MDA-MB-231 cells. Description: Polysome profiling. Particulars: 1 μM, 12 h. It is filed as cell-based, human. Here is the method: 1 x 10^6 MDA-MB-231 cells were plated in 100 mm culture plate and allowed to be attached for 24 h. Next day, cells were treated with vehicle or SU056 (1 μM) for 12 h in regular culture medium. Next, cells were incubated with cycloheximide (10 μg/mL) for 5 min at 37°C. Cells were then washed twice in 1x PBS with 10 μg/mL cycloheximide and collected by trypsinization and snap freeze in liquid nitrogen. Cell pellet was lysated in 250 μL polysome lysis buffer (5 mM Tris-HCl [pH 7.4], 1.5 mM KCl, 2.5 mM MgCl2, 0.1 mg/mL cycloheximide, 100 U/mL RNasin, 1× EDTA-free Complete protease inhibitor cocktail, 2 mM DTT, 0.5% Triton X-100, 0.5% deoxycholate). Lysate were quantified taking absorbance at 260 nm using Nanodrop and loaded on a linear 15%–50% sucrose gradient. The gradients were ultracentrifuged SW41Ti rotor (Beckman) for 1 h and 30 min at 180,000 g at 4°C in Beckman Optima LE-80K Ultracentrifuge. The gradients were fractionated in 1 mL volume fractions with continuous monitoring absorbance at 254 nm using an ISCO UA-6 UV detector at Immagina Biotechnology, Pergine, Italy.

Setting [12] is: mouse, female C57BL/6J mice, plasma.
Where [13] appears, read: nocodazole 200 nM 16 h, then SU056 24 h.

For orientation: Cmax means the highest concentration seen after dosing. For orientation: Tmax means the time at which the peak concentration occurs. As a reminder, the IC50 is the midpoint of a concentration-inhibition curve. Take `O=C1OCC2=C1C(c1cccc(F)c1)c1cc3c(cc1N2CCO)OCO3` (stereo not shown) [SU056, 9-(3-fluorophenyl)-5-(2-hydroxyethyl)-6,9-dihydro-[1,3]dioxolo[4,5-g]furo[3,4-b]quinolin-8(5H)-one]: the “time a cytotoxic concentration remained in the plasma” value in series [1] (mice) is recorded as “up to 6 h”. For the same compound, in series [1] (female, C57BL/6J, mouse, plasma, po, 20 mg/kg, female C57BL/6J mice, plasma, read-out: half-life (T1/2)), the half-life is around 60 min. In addition, the Cmax in series [1] (setting [12]) is 9980 ng/mL and 27 µM. In [1] (setting [12]), the Tmax is 15 min. Further, the “levels of YB-1 and RPL-11 in tumors” value in [2] was “decrease”. Further, the IC50 in series [3] amounted to 1540 ± 140 nM; in series [4], 7150 ± 1260 nM; in [5], 1170 ± 340 nM; in [6] it was 1500 ± 120 nM; in [7] it was 1360 ± 270 nM; in [8], 1270 ± 190 nM. Moreover, in [9] (0.5, 1.0, and 2.0 μM, 12 and 24 h), the cell cycle effect entry is “G2/M phase arrest”. The “cell death in nocodazole-synchronized cells” value in [9] (setting [13]) and in series [10] (setting [13]) was “increased cell death” throughout. In addition, the “cells in G2/M phase” value in series [10] (24 h, control 12%) was found to be 34%. In addition, the “translational efficiency compared to control cells” value in series [11] is reported as “reduced translational efficiency”.
